Assay results: US10294212B2 (CURADEV PHARMA PRIVATE LTD., priority 2013, dated 2019)
Counter-ions that a name gives are not always drawn.

Tests used:
[1] = target: Human TDO (hTDO)-transfected CHO-K1 cells (Homo sapiens (Human), UniProt P48775); assay: CHO-K1 cell based TDO assay; conditions: hTDO cellular assay
Outline: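 Stably hTDO-expressing CHO-K1 cells were exposed to compounds (typically 31 μM to 10 nM) in HBSS with 80 μM L-tryptophan for 2 h. TCA-treated supernatant was heated at 65° C for 15 min to convert N-formylkynurenine, then kynurenine was quantified by LC/MS/MS. IC50 came from percent inhibition versus DMSO control.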

IDO1 in HeLa cells = IDO1 in HeLa cells (Homo sapiens (Human), UniProt P14902); assay: HeLa cell based IDO1 assay (IFNγ-induced, KYN in supernatant)
Outline: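 HeLa cells were induced overnight with IFNγ (50 ng/mL), washed, then exposed to compound (typically 10 μM–1 nM) in HBSS with 80 μM L-tryptophan. Supernatant was TCA-treated at 65 °C for 15 min to convert N-formylkynurenine, and KYN was measured by HPLC-UV at 360 nm. IC50 came from nonlinear regression against a 1% DMSO control.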

[2] = target: Human indoleamine 2,3-dioxygenase1 (hIDO1) (Homo sapiens (Human), UniProt P14902); assay: In-vitro IDO1 enzyme assay (conversion of L-tryptophan to KYN); format: biochemical; conditions: read-out: IC50 (IDO1) Enz
Outline: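 His-tagged hIDO1 (10 nM, E. coli-expressed) incubated with 30 μM L-tryptophan, 20 mM ascorbate, 10 μM methylene blue and 100 μg/mL catalase in 50 mM potassium phosphate pH 6.5, 30 min at 37 °C. TCA stop, then 65 °C hydrolysis; KYN measured by HPLC-UV at 360 nm or LC/MS/MS. IC50 by nonlinear regression versus 1% DMSO control.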

Human TDO (hTDO)-transfected CHO-K1 cells, sequence (P48775 whole entry): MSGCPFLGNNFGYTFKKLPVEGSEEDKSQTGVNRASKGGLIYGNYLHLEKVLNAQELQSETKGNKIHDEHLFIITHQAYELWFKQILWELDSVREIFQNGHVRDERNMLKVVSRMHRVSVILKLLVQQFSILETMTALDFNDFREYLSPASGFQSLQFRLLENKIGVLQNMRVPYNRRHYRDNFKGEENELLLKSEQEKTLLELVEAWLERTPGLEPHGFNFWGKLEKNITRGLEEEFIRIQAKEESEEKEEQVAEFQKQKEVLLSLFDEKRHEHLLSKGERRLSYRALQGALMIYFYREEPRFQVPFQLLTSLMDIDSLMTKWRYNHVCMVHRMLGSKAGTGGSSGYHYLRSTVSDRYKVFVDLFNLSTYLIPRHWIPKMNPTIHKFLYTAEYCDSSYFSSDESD
Human indoleamine 2,3-dioxygenase1 (hIDO1), sequence (P14902 whole entry): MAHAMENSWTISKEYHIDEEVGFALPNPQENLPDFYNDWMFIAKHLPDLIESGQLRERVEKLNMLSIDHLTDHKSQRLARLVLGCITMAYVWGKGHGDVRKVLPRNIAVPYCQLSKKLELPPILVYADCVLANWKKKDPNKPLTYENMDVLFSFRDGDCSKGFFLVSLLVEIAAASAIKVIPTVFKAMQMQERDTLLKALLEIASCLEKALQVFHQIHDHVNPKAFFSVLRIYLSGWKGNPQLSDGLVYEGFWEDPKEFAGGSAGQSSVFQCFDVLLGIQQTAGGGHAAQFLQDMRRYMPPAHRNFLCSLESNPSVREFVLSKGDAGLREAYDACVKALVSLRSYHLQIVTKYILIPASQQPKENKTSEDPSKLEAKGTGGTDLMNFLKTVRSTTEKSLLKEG
IDO1 in HeLa cells, sequence (P14902 whole entry): as above

Row | Structure (SMILES) | IC50 [1] [nM] | IC50 (IDO1 in HeLa cells) [nM] | IC50 [2] [nM]
1 | Nc1oc2c(-c3ccncc3)nccc2c1Nc1cc(F)cc(F)c1 [Compound 187, N^3-(3,5-Difluorophenyl)-7-(pyridin-4-yl)furo[2,3-c]pyridine-2,3-diamine] | < 500 | < 200 | 200 to 1000
2 | Nc1oc2c(-c3ccncc3)nc(F)cc2c1Nc1ccc(F)c(F)c1 [Compound 188, N^3-(3,4-Difluorophenyl)-5-fluoro-7-(pyridin-4-yl)furo[2,3-c]pyridine-2,3-diamine] | 500 to 2000 | < 200 | < 200
3 | Nc1oc2c(F)nccc2c1Nc1ccc(F)c(C(F)(F)F)c1 [Compound 189, 7-Fluoro-N^3-(4-fluoro-3-(trifluoromethyl)phenyl)furo[2,3-c]pyridine-2,3-diamine] | 500 to 2000 | < 200 | < 200
4 | Nc1oc2c(F)nc(F)cc2c1Nc1ccc(F)c(Cl)c1 [Compound 190, N^3-(3-Chloro-4-fluorophenyl)-5,7-difluorofuro[2,3-c]pyridine-2,3-diamine] | 500 to 2000 | < 200 | < 200
5 | Nc1oc2c(-c3cc(F)nc(F)c3)nccc2c1Nc1ccc(F)c(Cl)c1 [Compound 191, N^3-(3-Chloro-4-fluorophenyl)-7-(2,6-difluoropyridin-4-yl)furo[2,3-c]pyridine-2,3-diamine] | 500 to 2000 | < 200 | < 200
6 | Nc1oc2c(-c3ccncc3)nccc2c1Nc1ccc(F)c(C(F)(F)F)c1 [Compound 192, N^3-(4-Fluoro-3-(trifluoromethyl)phenyl)-7-(pyridin-4-yl)furo[2,3-c]pyridine-2,3-diamine] | 500 to 2000 | < 200 | < 200
7 | CNC(=O)c1cc(-c2nccc3c(Nc4ccc(F)c(Cl)c4)c(N)oc23)ccn1 [Compound 195, 4-(2-Amino-3-((3-chloro-4-fluorophenyl)amino)furo[2,3-c]pyridin-7-yl)-N-methylpicolinamide] | 500 to 2000 | < 200 | < 200
8 | COc1ccccc1-c1nccc2c(Nc3ccc(F)c(F)c3)c(N)oc12 [Compound 196, N^3-(3,4-Difluorophenyl)-7-(2-methoxyphenyl)furo[2,3-c]pyridine-2,3-diamine] | < 500 | < 200 | 200 to 1000
9 | Nc1oc2c(-c3ccccc3Cl)nccc2c1Nc1ccc(F)c(F)c1 [Compound 197, 7-(2-Chlorophenyl)-N^3-(3,4-difluorophenyl)furo[2,3-c]pyridine-2,3-diamine] | < 500 | < 200 | < 200
10 | Cc1cc(-c2nccc3c(Nc4ccc(F)c(F)c4)c(N)oc23)ccn1 [Compound 198, N^3-(3,4-Difluorophenyl)-7-(2-methylpyridin-4-yl)furo[2,3-c]pyridine-2,3-diamine] | < 500 | < 200 | < 200
11 | Nc1oc2c(-c3cccc(C(F)(F)F)c3)nccc2c1Nc1ccc(F)c(Cl)c1 [Compound 199, N^3-(3-Chloro-4-fluorophenyl)-7-(3-(trifluoromethyl)phenyl)furo[2,3-c]pyridine-2,3-diamine] | > 2000 | < 200 | < 200
12 | Nc1oc2c(N(c3ccccc3)c3ccccc3)nccc2c1Nc1ccc(F)c(Cl)c1 [Compound 200, N^3-(3-Chloro-4-fluorophenyl)-N^7,N^7-diphenylfuro[2,3-c]pyridine-2,3,7-triamine] | > 2000 | < 200 | 200 to 1000
13 | Nc1oc2c(-c3ccncc3)nccc2c1Nc1ccc(F)cc1 [Compound 201, N^3-(4-Fluorophenyl)-7-(pyridin-4-yl)furo[2,3-c]pyridine-2,3-diamine] | < 500 | < 200 | < 200
14 | Cc1ccc2sc(N)c(Nc3ccc(F)c(Cl)c3)c2c1 [Compound 214, N^3-(3-Chloro-4-fluorophenyl)-5-methylbenzo[b]thiophene-2,3-diamine] | > 2000 | < 200 | 200 to 1000
15 | Cc1ccc2sc(N)c(Nc3ccc(F)c(F)c3)c2c1 [Compound 215, N^3-(3,4-difluorophenyl)-5-methylbenzo[b]thiophene-2,3-diamine] | > 2000 | < 200 | 200 to 1000
16 | Nc1oc2cnc(F)cc2c1Nc1ccccc1Cl [Compound 218, N^3-(2-Chlorophenyl)-5-fluorofuro[2,3-c]pyridine-2,3-diamine] | 500 to 2000 | < 200 | 200 to 1000

Further lines, results first:

Row | IC50 [1] [nM] | IC50 (IDO1 in HeLa cells) [nM] | IC50 [2] [nM] | Structure (SMILES)
17 | 500 to 2000 | < 200 | < 200 | Nc1oc2c(-c3ccncc3)nccc2c1Nc1ccccc1Cl [Compound 202, N^3-(2-Chlorophenyl)-7-(pyridin-4-yl)furo[2,3-c]pyridine-2,3-diamine]
18 | 500 to 2000 | < 200 | < 200 | Nc1oc2c(-c3ccncc3)nccc2c1Nc1cccc(C(F)(F)F)c1 [Compound 203, 7-(Pyridin-4-yl)-N^3-(3-(trifluoromethyl)phenyl)furo[2,3-c]pyridine-2,3-diamine]
19 | < 500 | < 200 | < 200 | Nc1oc2c(-c3cccc4ccccc34)nccc2c1Nc1ccc(F)c(Cl)c1 [Compound 204, N^3-(3-Chloro-4-fluorophenyl)-7-(naphthalen-1-yl)furo[2,3-c]pyridine-2,3-diamine]
20 | 500 to 2000 | < 200 | < 200 | Cc1cc(-c2nccc3c(Nc4ccc(F)c(C(F)(F)F)c4)c(N)oc23)ccn1 [Compound 205, N^3-(4-fluoro-3-(trifluoromethyl)phenyl)-7-(2-methylpyridin-4-yl)furo[2,3-c]pyridine-2,3-diamine]
21 | 500 to 2000 | < 200 | < 200 | Cc1cc(-c2nccc3c(Nc4ccccc4Cl)c(N)oc23)ccn1 [Compound 206, N^3-(2-chlorophenyl)-7-(2-methylpyridin-4-yl)furo[2,3-c]pyridine-2,3-diamine]
22 | 500 to 2000 | < 200 | < 200 | Cc1cc(-c2nccc3c(Nc4cccc(C(F)(F)F)c4)c(N)oc23)ccn1 [Compound 207, 7-(2-methylpyridin-4-yl)-N^3-(3-(trifluoromethyl)phenyl)furo[2,3-c]pyridine-2,3-diamine]
23 | < 500 | < 200 | < 200 | Cc1cc(-c2nccc3c(Nc4ccc(F)cc4)c(N)oc23)ccn1 [Compound 208, N^3-(4-fluorophenyl)-7-(2-methylpyridin-4-yl)furo[2,3-c]pyridine-2,3-diamine]
24 | 500 to 2000 | 200 to 1000 | < 200 | Nc1sc2c(Br)cccc2c1Nc1ccc(F)c(Cl)c1 [Compound 210, 7-Bromo-N^3-(3-chloro-4-fluorophenyl)benzo[b]thiophene-2,3-diamine hydrochloride]
25 | < 500 | < 200 | < 200 | Nc1sc2ccccc2c1Nc1ccc(F)c(F)c1 [Compound 211, N^3-(3,4-Difluorophenyl)benzo[b]thiophene-2,3-diamine]
26 | 500 to 2000 | < 200 | < 200 | Nc1sc2c(-c3ccncc3)cccc2c1Nc1ccc(F)c(Cl)c1 [Compound 213, N^3-(3-Chloro-4-fluorophenyl)-7-(pyridin-4-yl)benzo[b]thiophene-2,3-diamine]
27 | < 500 | < 200 | < 200 | Nc1oc2cnc(F)cc2c1Nc1ccc(F)c(F)c1 [Compound 216, N^3-(3,4-difluorophenyl)-5-fluorofuro[2,3-c]pyridine-2,3-diamine]
28 | < 500 | < 200 | < 200 | Nc1oc2c(-c3ccncc3)nccc2c1Nc1cccc(Cl)c1 [Compound 217, N^3-(3-Chlorophenyl)-7-(pyridin-4-yl)furo[2,3-c]pyridine-2,3-diamine]
29 | 500 to 2000 | < 200 | < 200 | CNC(=O)c1cc(-c2nccc3c(Nc4ccccc4Cl)c(N)oc23)ccn1 [Compound 219, 4-(2-Amino-3-((2-chlorophenyl)amino)furo[2,3-c]pyridin-7-yl)-N-methylpicolinamide]
30 | < 500 | < 200 | < 200 | Nc1oc2cnc(F)cc2c1Nc1cccc(Cl)c1 [Compound 220, N^3-(3-Chlorophenyl)-5-fluorofuro[2,3-c]pyridine-2,3-diamine]
31 | 500 to 2000 | < 200 | < 200 | Nc1oc2cnc(F)cc2c1Nc1cccc(C(F)(F)F)c1 [Compound 221, 5-Fluoro-N^3-(3-(trifluoromethyl)phenyl)furo[2,3-c]pyridine-2,3-diamine]
32 | 500 to 2000 | < 200 | < 200 | CNC(=O)c1cc(-c2nccc3c(Nc4ccc(F)c(F)c4)c(N)oc23)ccn1 [Compound 223, 4-(2-Amino-3-((3,4-difluorophenyl)amino)furo[2,3-c]pyridin-7-yl)-N-methylpicolinamide]
33 | < 500 | < 200 | < 200 | CNC(=O)c1cc(-c2nccc3c(Nc4ccc(F)cc4)c(N)oc23)ccn1 [Compound 224, 4-(2-Amino-3-((4-fluorophenyl)amino)furo[2,3-c]pyridin-7-yl)-N-methylpicolinamide]
